Reference: PubChem BioAssay (NCI)
Where “and” joins values, the source holds several entries; their conditions need not be identical. Equal entries are not always repeated.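 Step 1: Grow cells in 96-well plates. Step 2: Expose to compound for 48 hours at 5 concentrations. Step 3: Interpolate endpoints linearly; if unreached, use highest concentration. GI50: concentration for 50% inhibition of growth. TGI is the concentration that stops growth completely.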 Where a SMILES comes first, the peptide text is derived from it. [ ]: non-standard residue; d: D form. Ac5c = NC1(C(=O)O)CCCC1

Tests used:
Test in all cases: NCI-60 cell line screen, 48 h
[1] = tested on: M14 melanoma
[2] = tested on: OVCAR-3 ovarian
[3] = tested on: NCI-H23 lung
[4] = tested on: MCF7 breast
[5] = tested on: RXF 393 renal
[6] = tested on: SNB-19 CNS
[7] = tested on: SN12C renal
[8] = tested on: HOP-62 NSCLC
[9] = tested on: EKVX NSCLC
[10] = tested on: UACC-62 melanoma

| Structure (SMILES) | GI50 [1] [µM] | TGI [1] | GI50 [2] [µM] | TGI [2] | GI50 [3] [µM] | TGI [3] | GI50 [4] [µM] | TGI [4] | GI50 [5] [µM] | TGI [5] [µM] | GI50 [6] [µM] | TGI [6] | GI50 [7] [µM] | TGI [7] | GI50 [8] [µM] | TGI [8] | GI50 [9] [µM] | TGI [9] | GI50 [10] [µM] | TGI [10] |
| --- | --- | --- | --- | --- | --- | --- | --- | --- | --- | --- | --- | --- | --- | --- | --- | --- | --- | --- | --- | --- |
| O=S(=O)(NC1=NCCN1C(=S)SN1CCn2c1nsc2=S)c1ccc(Br)cc1 | 68.8 | > 100 µM | 23.8 | > 100 µM | 53.2 | > 100 µM | 31.7 | > 100 µM | 17.8 | 51.4 | > 100 | > 100 µM | 31.6 | > 100 µM | 52.4 | > 100 µM | 2.39 | 95.1 µM | 25.2 | 94.3 µM |
| CC1=C2[C@@H](CC1)[C@]1(C)O[C@@](C3CCCCC3)(C[C@H]1OC(=O)CO)[C@H]2OC(=O)/C=C/c1ccccc1 | 8.9 | 26.8 µM | 6.92 | 18.7 µM | 8.65 | 26.1 µM | 3.09 | 13.4 µM | 0.029 | 0.483 | 13.1 | 31.4 µM | 0.318 | 15.1 µM | 12 | 25.5 µM | 5.83 | 19.5 µM | 9.82 | 25.8 µM |
| Cn1ccnc1CC(C)(O)c1ccccc1 (stereo not drawn) |  | > 100 µM |  | > 100 µM |  | > 100 µM |  | > 100 µM |  | > 100 |  | > 100 µM |  | > 100 µM |  | > 100 µM |  | > 100 µM |  | > 100 µM |
| COc1cc2c(cc1OCCCOc1cc3c(cc1OC)C(=O)N1C[C@H](F)C[C@H]1C=N3)N=C[C@@H]1C[C@@H](F)CN1C2=O | 3.52 | 16.4 µM | 9.75 | 26 µM | 5.83 | 17.8 µM | 3.09 | 18.1 µM | 2.4 | 7.6 | 14 | 27.7 µM | 5.6 | 19.2 µM | 6.2 | 19.3 µM | 18.7 | 35.5 µM | 4.79 | 17.5 µM |
| O=C(O[C@H]1CN[C@H](C#Cc2cc3ncnc(Nc4ccc5c(ccn5Cc5cc(F)ccc5F)c4)c3s2)C1)N1CCOCC1 | 6.26 | 17.1 µM | 2.86 | 6.55 µM | 4.25 | 14.6 µM | 4.13 | > 14.5 µM | 0.413 | 3.32 | 4.46 | > 25 µM | 2.57 | 12.8 µM | 3.22 | 8.06 µM | 0.119 | 2.04 µM | 4.1 | 9.3 µM |
| COc1ccc(/C=N\NC(=O)CN2CCN(c3cc4c(cc3F)c(=O)c(C(=O)N/N=C/c3ccc(OC)c(OC)c3)cn4C3CC3)CC2)cc1OC | 3.53 | 11.9 µM | 2.65 | 7.26 µM | 3.1 | 10.8 µM | 3.21 | > 100 µM | 3.79 | 15.2 | 3.11 | 12.5 µM | 2.72 | 8.21 µM | 2.74 | 9.54 µM | 6.06 | > 100 µM | 2.21 | 4.83 µM |
| COc1cc(Nc2nccc(Nc3ccc4c(C)[nH]nc4c3)n2)cc(OC)c1OC | 1.35 | 5.37 µM | 2.5 | 7.54 µM | 2.51 | 7.82 µM | 1.62 | 16.9 µM | 0.683 | 3.21 | 4.91 | 19.9 µM | 2.12 | 20.8 µM | 1.08 | 8.34 µM | 1.87 | 9.19 µM | 1.08 | 4.82 µM |
| CC(C)=CCCC(C)c1ccc(C)c2c1OCN(CC1CCNCC1)C2 (stereo not drawn) | 10.2 | 24.5 µM | 15.6 | 31.1 µM | 15.7 | 33.6 µM | 6.15 | 18.7 µM | 9.2 | 21.7 | 14 | 29.4 µM | 14.2 | 28.9 µM | 14.8 | 28.7 µM | 20.7 | 66.9 µM | 15.5 | 29.9 µM |
| CCOC(=O)Nc1nc2ccc(Cn3cccc3)cc2[nH]1 |  | > 100 µM |  | 6.3 µM |  | > 100 µM |  | > 100 µM |  | > 22.3 |  | > 100 µM |  | > 100 µM |  | > 67.1 µM |  | > 100 µM |  | > 100 µM |
| CCN(CC)CCCC(C)Nc1c2ccc(Cl)cc2nc2ccc(OC)cc12 (stereo not drawn) |  | 3.36 µM and 3.39 µM |  | 6.89 µM and 9.8 µM |  | 4.11 µM and 3.27 µM | 2.33 | 8.04 µM and 10.7 µM |  | 2.53 | 1.96 | 10.8 µM and 16.2 µM | 1.59 | 7.16 µM and 9.28 µM | 1.61 | 3.98 µM and 8.04 µM | 2.09 | 7.29 µM and 13.3 µM |  | 3.29 µM and 3.4 µM |
| NC1(C(=O)NC2(C(=O)O)CCCC2)CCCC1 (H-[Ac5c]-[Ac5c]-OH) |  | > 100 µM |  | > 100 µM |  | > 100 µM |  | > 100 µM |  | > 100 |  | > 100 µM |  | > 100 µM |  | > 100 µM |  | > 100 µM |  | > 100 µM |
| NOCC(=O)O | 82.8 | > 100 µM | > 100 | > 100 µM | > 100 | > 100 µM | > 100 | > 100 µM | > 100 | > 100 | > 100 | > 100 µM | > 100 | > 100 µM | > 100 | > 100 µM | > 100 | > 100 µM | 34.4 | > 100 µM |
| CCN(CC)c1cc2c3c(c1)CCCN3CCC2 |  | > 10 µM |  | > 10 µM |  | > 10 µM |  | > 10 µM |  | > 10 |  | > 10 µM |  | > 10 µM |  | > 10 µM |  | > 10 µM |  | > 10 µM |
| CC1(C)C2CCC3=C(CCC4(C)C5C[C@](C)(C(=O)O)CC[C@]5(C)CC[C@]34C)[C@@]2(C)CC[C@@H]1O (stereo partly drawn) |  | 31.8 µM |  | 29.8 µM |  | 43.2 µM |  | 40.4 µM |  | 41.3 |  |  |  |  |  | 31.3 µM |  | 53 µM |  | 37.6 µM |
| Nc1ccc(N(S(=O)(=O)c2ccccc2)S(=O)(=O)c2ccccc2)c(Cl)c1 |  | > 100 µM |  |  |  | > 100 µM |  | > 100 µM |  | > 100 |  | > 100 µM |  | > 100 µM |  | > 100 µM |  | > 100 µM |  | > 100 µM |
| O=[N+]([O-])c1cc(Cl)c(Cl)c([N+](=O)[O-])c1Cl | 0.642 | 2.23 µM | 1.69 | 3.07 µM |  |  | 1.14 | 3.42 µM | 1.82 | 3.25 | 6.55 | 22.6 µM |  |  | 1.82 | 3.25 µM | 2.23 | 5.32 µM | 1.94 | 4.35 µM |
